Key:
cells = assay: Agar diffusion plaque inhibition assay, zone of cytotoxicity (cell death); type: cell-based; conditions: 50 μg of test compound
Experimental: These tests were performed by the methods described in the following published reference: (H. E. Renis, C. A. Hollowell, and G. E. Underwood, J. Med. Chem., Vol 10, pp 777-782 (1967)). Both DNA and RNA-containing viruses were used. The results are presented below as the zone of cytotoxicity (cell death)/zone of viral plaque inhibition for 50 μg of test compound.

PR-8 Influenza (RNA) = type: cell-based, Influenza virus; conditions: PR8; 50 μg of test compound
[1] = tested on: Coxsackie A21 virus (RNA); assay: Agar diffusion plaque inhibition assay, COE; type: cell-based; conditions: 50 μg of test compound
[2] = tested on: Parainfluenza 3 virus (RNA); type: cell-based; conditions: HA-1; 50 μg of test compound
Equine rhinovirus (RNA) = assay: Agar diffusion plaque inhibition assay, E.R.; type: cell-based; conditions: 50 μg of test compound
[3] = tested on: Herpes simplex virus type I (DNA); assay: Agar diffusion plaque inhibition assay, HSV-1; type: cell-based; conditions: 50 μg of test compound
[4] = tested on: Herpes simplex virus type II (DNA); assay: Agar diffusion plaque inhibition assay, HSV-2; type: cell-based; conditions: 50 μg of test compound
Vaccinia virus (DNA) = type: cell-based; conditions: VACC.; 50 μg of test compound

**Q.** For `COc1ccc(C[C@H]2C(=O)O[C@H](C)[C@H](NC(=O)[C@@H](CC(C)C)N(C)C(=O)C3CCCN3C(=O)C(C)OC(C)=O)C(=O)NC(CC(C)C)C(OC(C)=O)CC(=O)OC(C(C)C)C(=O)C(C)C(=O)N[C@@H](CC(C)C)C(=O)N3CCC[C@H]3C(=O)N2C)cc1` (some centres unmarked) [Diacetyl], which “zone of cytotoxicity (cell death)” value (cells; COE) is on record?
**A.** 3

**Q.** What about the “zone of cytotoxicity (cell death)” value (cells; E.R.) of the same compound?
**A.** 2

**Q.** And the “zone of cytotoxicity (cell death)” value (cells; HA-1)?
**A.** 1

**Q.** What about the “zone of cytotoxicity (cell death)” value (cells; HSV-1) of the same compound?
**A.** 3

**Q.** What about the “zone of cytotoxicity (cell death)” value (cells; HSV-2) of the same compound?
**A.** 3

**Q.** What about the “zone of cytotoxicity (cell death)” value (cells; PR8) of the same compound?
**A.** 3

**Q.** What about the “zone of cytotoxicity (cell death)” value (cells; VACC.) of the same compound?
**A.** 3

**Q.** What about the “zone of viral plaque inhibition” value (PR-8 Influenza (RNA)) of the same compound?
**A.** 0

**Q.** What about the “zone of viral plaque inhibition” value [1] of the same compound?
**A.** 3

**Q.** What about the “zone of viral plaque inhibition” value [2] of the same compound?
**A.** 0

**Q.** What about the “zone of viral plaque inhibition” value (Equine rhinovirus (RNA)) of the same compound?
**A.** 4

**Q.** And the “zone of viral plaque inhibition” value [3]?
**A.** 4

**Q.** And the “zone of viral plaque inhibition” value [4]?
**A.** 4

**Q.** What about the “zone of viral plaque inhibition” value (Vaccinia virus (DNA)) of the same compound?
**A.** 4

Source: patent US4493796A, “Didemnins A, B, C, and derivatives thereof, as antiviral agents” (Board of Trustees, Univ. of Ill., priority 1984, dated 1985)
